Biological target: human PSMA (Homo sapiens (Human), UniProt Q04609)
Test: Enzymatic assay for in vitro evaluation of PSMA inhibitors (fluorescent assay of PSMA activity, NAAG substrate, OPA detection of glutamate)
Type: biochemical

Chain of human PSMA (Q04609 whole entry): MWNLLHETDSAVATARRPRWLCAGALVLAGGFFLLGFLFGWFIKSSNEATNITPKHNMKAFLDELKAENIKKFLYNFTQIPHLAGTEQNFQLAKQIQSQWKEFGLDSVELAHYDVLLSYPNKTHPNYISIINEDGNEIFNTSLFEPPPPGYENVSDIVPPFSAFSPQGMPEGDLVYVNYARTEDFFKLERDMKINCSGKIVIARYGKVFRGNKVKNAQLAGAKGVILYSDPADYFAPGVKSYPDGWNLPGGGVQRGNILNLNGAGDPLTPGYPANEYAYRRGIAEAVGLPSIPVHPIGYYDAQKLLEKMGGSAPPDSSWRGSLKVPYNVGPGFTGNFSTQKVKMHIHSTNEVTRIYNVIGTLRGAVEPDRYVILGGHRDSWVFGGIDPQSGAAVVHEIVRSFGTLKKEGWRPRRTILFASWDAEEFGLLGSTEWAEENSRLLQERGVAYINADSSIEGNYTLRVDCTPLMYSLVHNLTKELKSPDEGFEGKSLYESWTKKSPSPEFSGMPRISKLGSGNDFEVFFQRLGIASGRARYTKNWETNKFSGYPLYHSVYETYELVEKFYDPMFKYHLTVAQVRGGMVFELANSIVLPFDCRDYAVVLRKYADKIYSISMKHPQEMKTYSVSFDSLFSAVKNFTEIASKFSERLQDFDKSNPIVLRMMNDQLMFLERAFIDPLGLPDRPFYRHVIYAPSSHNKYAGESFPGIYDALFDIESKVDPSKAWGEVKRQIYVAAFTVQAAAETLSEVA

| SMILES | PSMA Blkg % (1.0 μM) [%] | Ki [nM] |
| --- | --- | --- |
| O=C(O)CC[C@H](NC(=O)N[C@@H](CCCCNc1ccc([N+](=O)[O-])c(F)n1)C(=O)O)C(=O)O [P269, (S)-2-(3-((S)-1-Carboxy-5-((6-fluoro-5-nitropyridin-2-yl)amino)pentyl)ureido)pentanedioic Acid] | 66 |  |
| O=C(O)CC[C@H](NC(=O)N[C@@H](CCCCNc1cc(NCCOCCn2cc(CCCF)nn2)ncn1)C(=O)O)C(=O)O [P271, (S)-2-(3-((S)-1-Carboxy-5-((6-((2-(2-(4-(3-fluoropropyl)-1H-1,2,3-triazol-1-yl)ethoxy)ethyl)amino)pyrimidin-4-yl)amino)pentyl)ureido)pentanedioic Acid] | 98 | 0.8 |
| O=C(O)CC[C@H](NC(=O)NC(CCCCNc1nc(NCCN(CCNC(=O)Cn2cc(CCCF)nn2)CCNc2ccc([N+](=O)[O-])c(NCCCCC(NC(=O)N[C@@H](CCC(=O)O)C(=O)O)C(=O)O)n2)ccc1[N+](=O)[O-])C(=O)O)C(=O)O (stereo partly drawn) [P273, (2S,2′S)-2,2′-(((((1S,1′S)-((6,6′-((((2-(2-(4-(3-Fluoropropyl)-1H-1,2,3-triazol-1-yl)acetamido)ethyl)azanediyl)bis(ethane-2,1-diyl))bis(azanediyl))bis(3-nitropyridine-6,2-diyl))bis(azanediyl))bis(1-carboxypentane-5,1-diyl))bis(azanediyl))bis(carbonyl))bis(azanediyl))dipentanedioic Acid] | 97 | 0.2 |
| O=C(O)CC[C@H](NC(=O)N[C@@H](CCc1nc(-c2ccc([N+](=O)[O-])cc2)co1)C(=O)O)C(=O)O [P279, (S)-2-(3-((S)-1-Carboxy-3-(4-(4-nitrophenyl)oxazol-2-yl)propyl)ureido)pentanedioic Acid] |  | 1.6 |
| O=C(O)CC[C@H](NC(=O)N[C@@H](CC1CCN(C(=O)c2cc(C(=O)O)cc(-n3cc(CCCF)nn3)c2)CC1)C(=O)O)C(=O)O [P284, (S)-2-(3-((S)-1-Carboxy-2-(1-(3-carboxy-5-(4-(3-fluoropropyl)-1H-1,2,3-triazol-1-yl)benzoyl)piperidin-4-yl)ethyl)ureido)pentanedioic Acid] | 96 |  |
| O=C(O)CCC(NC(=O)N[C@@H](Cc1ccc(NC(=O)CCC(CCC(=O)Nc2ccc(CC(NC(=O)N[C@@H](CCC(=O)O)C(=O)O)C(=O)O)cc2)(CCC(=O)Nc2ccc(C[C@H](NC(=O)NC(CCC(=O)O)C(=O)O)C(=O)O)cc2)NC(=O)CCCCn2cc(CCCF)nn2)cc1)C(=O)O)C(=O)O (stereo partly drawn) [P285, (2S,2′S)-2,2′-(((((1S,1′S)-(((4-(3-((4-((S)-2-Carboxy-2-(3-((S)-1,3-dicarboxypropyl)ureido)ethyl)phenyl)amino)-3-oxopropyl)-4-(5-(4-(3-fluoropropyl)-1H-1,2,3-triazol-1-yl)pentanamido)heptanedioyl)bis(azanediyl))bis(4,1-phenylene))bis(1-carboxyethane-2,1-diyl))bis(azanediyl))bis(carbonyl))bis(azanediyl))dipentanedioic Acid] |  | 0.5 |
| O=C(O)CCC(NC(=O)N[C@@H](CCCCNC(=O)CCC(CCC(=O)NCCCC[C@H](NC(=O)NC(CCC(=O)O)C(=O)O)C(=O)O)(CCC(=O)NCCCC[C@H](NC(=O)NC(CCC(=O)O)C(=O)O)C(=O)O)NC(=O)c1ccc(-n2cc(CCCF)nn2)cc1)C(=O)O)C(=O)O (stereo partly drawn) [P287, (3S,7S,25S,29S)-16-(3-(((S)-5-Carboxy-5-(3-((S)-1,3-dicarboxypropyl)ureido)pentyl)amino)-3-oxopropyl)-16-(4-(4-(3-fluoropropyl)-1H-1,2,3-triazol-1-yl)benzamido)-5,13,19,27-tetraoxo-4,6,12,20,26,28-hexaazahentriacontane-1,3,7,25,29,31-hexacarboxylic Acid] | 95 | 1 |
| NCCOCCOCCOCCOCc1cn(-c2cc(C(=O)NCCCC[C@H](NC(=O)N[C@@H](CCC(=O)O)C(=O)O)C(=O)O)cc(C(=O)NCCCC[C@H](NC(=O)N[C@@H](CCC(=O)O)C(=O)O)C(=O)O)c2)nn1 [P288, (2S,2′S)-2,2′-(((((1S,1′S)-((5-(4-(13-Amino-2,5,8,11-tetraoxatridecyl)-1H-1,2,3-triazol-1-yl)isophthaloyl)bis(azanediyl))bis(1-carboxypentane-5,1-diyl))bis(azanediyl))bis(carbonyl))-bis(azanediyl))dipentanedioic Acid] | 85 | 9.7 |
| [N-]=[N+]=Nc1cc(C(=O)NCCCCCC(=O)N[C@@H](CCC(=O)O)C(=O)O)cc(C(=O)NCCCCCC(=O)N[C@@H](CCC(=O)O)C(=O)O)c1 [P289, (2S,2′S)-2,2′-((6,6′-((5-Azidoisophthaloyl)bis(azanediyl))bis(hexanoyl))-bis(azanediyl))dipentanedioic Acid] | 0 |  |
| O=C(O)CC[C@H](NC(=O)NCCCCCNC(=O)c1cc(C(=O)NCCCCCNC(=O)N[C@@H](CCC(=O)O)C(=O)O)cc(-n2cc(CCCF)nn2)c1)C(=O)O [P290, (2S,2′S)-2,2′-((((((5-(4-(3-Fluoropropyl)-1H-1,2,3-triazol-1-yl)isophthaloyl)bis(azanediyl))bis(pentane-5,1-diyl))bis(azanediyl))bis(carbonyl))-bis(azanediyl))dipentanedioic Acid] | 0 |  |

The remaining lines, values ahead:

| PSMA Blkg % (1.0 μM) [%] | Ki [nM] | SMILES |
| --- | --- | --- |
| 82 |  | O=C(O)CC[C@H](NC(=O)N[C@@H](CCCCNC(=O)c1cc(C(=O)Nc2ccc(C[C@H](NC(=O)N[C@@H](CCC(=O)O)C(=O)O)C(=O)O)cc2)cc(-n2cc(CCCF)nn2)c1)C(=O)O)C(=O)O [P267, (S)-2-(3-((S)-1-Carboxy-2-(4-(3-(((S)-5-carboxy-5-(3-((S)-1,3-dicarboxypropyl)ureido)pentyl)carbamoyl)-5-(4-(3-fluoropropyl)-1H-1,2,3-triazol-1-yl)benzamido)phenyl)ethyl)ureido)pentanedioic Acid] |
| 68 |  | O=C(O)CC[C@H](NC(=O)N[C@@H](CCCCNC(=O)c1cc(C(=O)N[C@@H](CCC(=O)O)C(=O)O)cc(-n2cc(CCCF)nn2)c1)C(=O)O)C(=O)O [P268, (S)-2-(3-((S)-1-Carboxy-5-(3-(((S)-1,3-dicarboxypropyl)carbamoyl)-5-(4-(3-fluoropropyl)-1H-1,2,3-triazol-1-yl)benzamido)pentyl)ureido)pentanedioic Acid] |
| 97 | 2.5 | O=C(O)CC[C@H](NC(=O)N[C@@H](CC1CCN(C(=O)c2cc(C(=O)N3CCC(C[C@H](NC(=O)N[C@@H](CCC(=O)O)C(=O)O)C(=O)O)CC3)cc(-n3cc(CCCF)nn3)c2)CC1)C(=O)O)C(=O)O [P272, (S)-2-(3-((S)-1-Carboxy-2-(1-(3-(4-((S)-2-carboxy-2-(3-((S)-1,3-dicarboxypropyl)-ureido)ethyl)piperidine-1-carbonyl)-5-(4-(3-fluoropropyl)-1H-1,2,3-triazol-1-yl)benzoyl)piperidin-4-yl)ethyl)ureido)pentanedioic Acid] |
|  | 1.3 | O=C(O)CC[C@H](NC(=O)N[C@@H](CCCCNC(=O)CC(CC(=O)NCCCC[C@H](NC(=O)N[C@@H](CCC(=O)O)C(=O)O)C(=O)O)NC(=O)Cn1cc(CCCF)nn1)C(=O)O)C(=O)O [P276, (3S,7S,23S,27S)-15-(2-(4-(3-Fluoropropyl)-1H-1,2,3-triazol-1-yl)acetamido)-5,13,17,25-tetraoxo-4,6,12,18,24,26-hexaazanonacosane-1,3,7,23,27,29-hexacarboxylic Acid] |
|  | 0.9 | O=C(O)CC[C@H](NC(=O)N[C@@H](Cc1ccc(NC(=O)CCC(CCC(=O)Nc2ccc(C[C@H](NC(=O)N[C@@H](CCC(=O)O)C(=O)O)C(=O)O)cc2)NC(=O)c2ccc(-n3cc(CCCF)nn3)cc2)cc1)C(=O)O)C(=O)O [P280, (2S,2′S)-2,2′(((((1S,1′S)(((4-(4-(4-(3-Fluoropropyl)-1H-1,2,3-triazol-1-yl)-benzamido)-heptanedioyl)-bis(azanediyl))-bis(4,1-phenylene))-bis(1-carboxyethane-2,1-diyl))-bis(azanediyl))-bis(carbonyl))-bis(azanediyl))-dipentanedioic Acid] |
|  | 1.1 | O=C(O)CC[C@H](NC(=O)N[C@@H](CCCCNC(=O)CCC(CCC(=O)NCCCC[C@H](NC(=O)N[C@@H](CCC(=O)O)C(=O)O)C(=O)O)NC(=O)c1ccc(-n2cc(CCCF)nn2)cc1)C(=O)O)C(=O)O [P282, (3S,7S,25S,29S)-16-(4-(4-(3-Fluoropropyl)-1H-1,2,3-triazol-1-yl)benzamido)-5,13,19,27-tetraoxo-4,6,12,20,26,28-hexaazahentriacontane-1,3,7,25,29,31-hexacarboxylic Acid] |
| 98 | 0.9 | O=C(O)CC[C@H](NC(=O)N[C@@H](CCCCNC(=O)c1cc(NC(=O)Cn2cc(CCCF)nn2)cc(C(=O)NCCCC[C@H](NC(=O)N[C@@H](CCC(=O)O)C(=O)O)C(=O)O)c1)C(=O)O)C(=O)O [P283, (2S,2′S)-2,2′-(((((1S,1′S)-((5-(2-(4-(3-fluoropropyl)-1H-1,2,3-triazol-1-yl)acetamido)isophthaloyl)bis(azanediyl))bis(1-carboxypentane-5,1-diyl))bis(azanediyl))bis(carbonyl))bis(azanediyl))dipentanedioic Acid] |
| 92 | 12.5 | O=C(O)CC[C@H](NC(=O)N[C@@H](CCCCNC(=O)c1cc(C(=O)N2CCN(C(=O)Nc3ccc(C[C@H](NC(=O)N[C@@H](CCC(=O)O)C(=O)O)C(=O)O)cc3)CC2)cc(-n2cc(CCCF)nn2)c1)C(=O)O)C(=O)O [P286, (S)-2-(3-((S)-1-Carboxy-2-(4-(4-(3-(((S)-5-carboxy-5-(3-((S)-1,3-dicarboxypropyl)ureido)pentyl)carbamoyl)-5-(4-(3-fluoropropyl)-1H-1,2,3-triazol-1-yl)benzoyl)piperazine-1-carboxamido)phenyl)ethyl)ureido)pentanedioic Acid] |
